{
  "source": "patent US20220257583A1",
  "about": "“Compositions and Methods for the Treatment of Intracranial Diseases” (Duke University, priority 2019, published 2022)",
  "molecules": {"B1": {"name": "G-CSF: granulocyte colony-stimulating factor, administered intraperitoneally every 3 days (protein, UniProt P09919 31-207, looked up)", "Granulocyte …": "TPLGPASSLPQSFLLKCLEQVRKIQGDGAALQEKLVSECATYKLCHPEELVLLGHSLGIPWAPLSSCPSQALQLAGCLSQLHSGLFLYQGLLQALEGISPELGPTLDTLQLDVADFATTIWQQMEELGMAPALQPTQGAMPAFASAFQRRAGGVLVASHLQSFLEVSYRVLRHLAQP"}},
  "key": {"S1P1 on T cells": {"system": "S1P1 on T cells", "assay": "S1P1 expression on T cells exposed to compound", "assay_type": "cell-based"}, "[1]": {"target": "T1, β-arrestin 2 recruitment to activated β2V2R (Homo sapiens, UniProt P32121)", "T1 construct": "host or cells: U2OS", "T1 sequence (P32121 whole entry)": "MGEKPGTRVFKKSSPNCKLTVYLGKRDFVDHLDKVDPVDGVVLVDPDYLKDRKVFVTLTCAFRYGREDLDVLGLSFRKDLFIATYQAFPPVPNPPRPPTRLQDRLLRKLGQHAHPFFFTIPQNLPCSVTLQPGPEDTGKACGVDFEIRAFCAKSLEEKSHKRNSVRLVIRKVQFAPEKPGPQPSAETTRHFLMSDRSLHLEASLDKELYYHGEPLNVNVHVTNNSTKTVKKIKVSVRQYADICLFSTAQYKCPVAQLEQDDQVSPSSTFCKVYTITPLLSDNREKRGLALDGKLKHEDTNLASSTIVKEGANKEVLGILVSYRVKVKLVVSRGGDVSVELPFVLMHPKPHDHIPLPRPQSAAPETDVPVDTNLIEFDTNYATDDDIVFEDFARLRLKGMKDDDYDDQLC", "assay": "DiscoveRx β-arrestin 2 recruitment assay (β2V2R, isoproterenol stimulation)", "assay_type": "cell-based", "conditions": "25 minutes pretreatment", "procedure": "FIG. 13: The first 40 initial hits from the screening of a structurally diverse, drug-like compound (DDLC) library containing more than 3,500 unique molecules with binding activity against purified β-arrestin 2 were evaluated for β-arrestin 2 recruitment by DiscoveRx assay. DiscoveRx cells expressing chimeric β2-adrenergic receptor (β2AR) with C-terminal tail from vasopressin receptor 2 (β2V2R) that is known to bind β-arrestin 2 very tightly were employed in this assay. The DiscoveRx cells were pretreated with candidate compounds at 50 μM or DMSO (control) for 25 minutes followed by stimulation with isoproterenol (10 nM). Compound B29 inhibits more than 75% of β-arrestin 2 activity (red-dashed rectangle) induced by isoproterenol which is a receptor agonist (red bar graph).\nFIG. 14: β-arrestin 2 recruitment to activated β2V2R. Testing B29 further, the DiscoveRx cells were pretreated with compound B29 at 1, 10, 50 μM or DMSO (control) for 25 minutes followed by stimulation with isoproterenol at various concentrations.\nFIG. 20 is a graphic representation showing the effect of putative βarr2 binding compounds (21 hits) on βarr2 recruitment to agonist activated GPCR. DiscoveRx-U2OS cells exogenously expressing βarr2 and β2V2R were treated with each putative βarrestin binding compound at 50 μM for 30 min and then stimulated with agonist isoproterenol (10 nM) to induce recruitment of βarr. […]"}, "intracranial CT2A glioma": {"system": "intracranial CT2A glioma", "assay": "Survival of mice bearing intracranial CT2A glioma", "assay_type": "in vivo", "conditions": "IC CT2A mice, monotherapy", "procedure": "FIGS. 6A-6E: Hindering S1P1 internalization abrogates T-cell sequestration in bone marrow. FIG. 6A: Relative sequestration of adoptively transferred CFSE-labeled T-cells within the bone marrow of CT2A IC recipient mice at 2 h (left) or 24 h (right) after transfer. As indicated, transferred cells were splenocytes either from control C57BL/6 donors (control) or from S1P1 stabilized knock-in (S1P1 KI) donors (n=5 recipient mice per group). […] FIG. 6B: T-cell counts in the bone marrow of n=10 intracranial CT2A-bearing wild-type C57BL/6 or n=11 S1P1 KI mice. Counts were assessed at 18 d following tumor implantation and are shown relative to baseline counts inn=6 tumor-naïve control wild-type or n=6 tumor-naïve S1P1 KI mice. Cumulative data from three experiments are depicted in FIG. 6B and FIG. 6C, Intracranial CT2A tumors were harvested from n=6 wild-type C57BL/6 (WT) or n=6 S1P1 KI mice at 18 d following tumor implantation. TILs were assessed by flow cytometry and the number of total T-cells per gram of tumor quantified. FIG. 6D: The frequency of activated effector) (CD44^hiCD62L^lo) T-cells in intracranial CT2A tumors from the same n=6 wild-type C57BL/6 (WT) or n=6 S1P1 KI mice in FIG. 6C was also quantified. […] P values in and were determined by two-tailed, unpaired Student's t-test. Survival in FIG. 6E was assessed by two-tailed, generalized Wilcoxon test. […]"}, "[2]": {"system": "T-cells in IC CT2A-bearing mice", "assay": "Bone marrow and blood T-cell counts in IC CT2A-bearing mice", "assay_type": "in vivo", "conditions": "intraperitoneally every 3 days (Days 3-18), counts 18 days after implantation", "excerpt": "FIGS. 6F-6J: FIG. 6F: Representative flow cytometry plot depicting the frequency of S1P1 on the surface of T-cells in the bone marrow of C57BL/6 mice and S1P1 KI bearing IC CT2A tumor. FIG. 6G: S1P1 KI mice were implanted with IC CT2A tumors and treated with anti (α)-PD-1, 4-1BB agonist, or the combination of both (n=8 per group). FIG. 6H and FIG. 6I: Bone marrow (FIG. 6H) and blood (FIG. 6I) T-cell counts in n=8 control mice and n=8 IC CT2A-bearing mice administered control treatment or G-CSF intraperitoneally every 3 days following tumor implantation (Days 3-18). Counts were assessed 18 days following tumor implantation. FIG. 6J: IC CT2A IC mice were administered G-CSF, 4-1BB agonist, or the combination regimen of both drugs (n=8 per group). […] Data in FIG. 6H and FIG. 6I are shown as mean±s.e.m. P values and were determined by two-tailed, unpaired Student's t-test. Survivals in FIG. 6G and FIG. 6J were assessed by two-tailed generalized Wilcoxon test. P values for overall comparison are depicted. […]\nSpleen, thymus, cervical lymph nodes, and long bones of the legs (femur and tibia) were collected at defined and/or humane endpoints, in accordance with protocol. […] Briefly, tissues were processed in RPMI, minced into single cell suspensions, cell-strained, counted, stained with antibodies, and analyzed via flow cytometry. […]"}},
  "data": [
    {"molecule": "CN(C)c1n/c(=N/Cc2ccco2)ss1", "note": "[Compound C30, (Z)-3-((furan-2-ylmethyl)imino)-N,N-dimethyl-3H-1,2,4-dithiazol-5-amine]", "values": [
      {"measurement": "S1P1 expression level on T cells", "setting": "S1P1 on T cells; higher concentrations of compound", "result": "higher levels of S1P1 expression"},
      {"measurement": "ability to inhibit BARR", "setting": "S1P1 on T cells; initially screened compound, FIG. 12", "result": "inhibit BARR"}
    ]},
    {"molecule": "COc1cc(Cc2nccc3cc(OC)c(OC)cc23)c(C(C)=O)cc1OC", "note": "[Compound B29, 1-(2-((6,7-dimethoxyisoquinolin-1-yl)methyl)-4,5-dimethoxyphenyl)ethan-1-one]", "values": [
      {"measurement": "inhibition at 50 µM", "setting": "[1]; compound 50 μM, isoproterenol 10 nM, read-out: inhibition of β-arrestin 2 activity induced by isoproterenol", "result": "> 75", "unit": "%"},
      {"measurement": "effect on isoproterenol titration curves of β-arrestin 2 recruitment", "setting": "[1]; compound at 1, 10, 50 μM, isoproterenol at various concentrations", "result": "shifts the potency of agonist rightward and decreases maximal response in a dose dependent fashion"}
    ]},
    {"molecule": "B1", "values": [
      {"measurement": "survival", "setting": "intracranial CT2A glioma", "result": "did not to consistently impact survival"},
      {"measurement": "T-cell lymphopenia (blood T-cell counts)", "setting": "[2]", "result": "reversed"},
      {"measurement": "bone marrow T-cell counts", "setting": "[2]", "result": "decreased"}
    ]}
  ]
}
